Reference: PubChem BioAssay AID200 (DTP/NCI, 2004)
“And” between values parts separate entries of the source, which are not always exact repeats. Equal values may be shown once. Toxic doses and inconclusive results are not listed.

Test system: B6C3F1 mice, B16 melanoma ip, median survival T/C
Test: NCI In Vivo Anticancer Drug Screen. Data for tumor model B16 Melanoma (intraperitoneal) in B6C3F1 mice
Details: endpoint: median survival time, higher = longer survival
Method in brief: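 Antitumor effect was judged in mice with transplanted tumors by dividing the treated group's survival measure by that of vehicle controls.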

[1] = dose: 12.5 mg/kg/injection, schedule: Q01DX009 (ip), vehicle: saline with Tween-80
[2] = dose: 25.0 mg/kg/injection, schedule: Q01DX009 (ip), vehicle: saline with Tween-80
[3] = dose: 50.0 mg/kg/injection, schedule: Q01DX009 (ip), vehicle: saline with Tween-80
[4] = dose: 100.0 mg/kg/injection, schedule: Q01DX009 (ip), vehicle: saline with Tween-80
[5] = dose: 200.0 mg/kg/injection, schedule: Q01DX009 (ip), vehicle: saline with Tween-80
[6] = dose: 400.0 mg/kg/injection, schedule: Q01DX009 (ip), vehicle: saline with Tween-80
[7] = dose: 25.0 mg/kg/injection, schedule: Q01DX009 (ip), vehicle: Klucel (hydroxypropylcellulose) (HPC)
[8] = dose: 12.5 mg/kg/injection, schedule: Q01DX009 (ip), vehicle: saline
[9] = dose: 25.0 mg/kg/injection, schedule: Q01DX009 (ip), vehicle: saline
[10] = dose: 50.0 mg/kg/injection, schedule: Q01DX009 (ip), vehicle: saline
[11] = dose: 200.0 mg/kg/injection, schedule: Q01DX009 (ip), vehicle: saline
[12] = dose: 100.0 mg/kg/injection, schedule: Q01DX009 (ip), vehicle: saline

## COc1cc([C@@H]2c3cc4c(cc3[C@H](O)[C@H]3COC(=O)[C@H]23)OCO4)cc(OC)c1OC
dose: 0.36 mg/kg/injection, schedule: Q01DX009 (ip), vehicle: Klucel (hydroxypropylcellulose) (HPC)
  T/C: 116 % of control
dose: 0.6 mg/kg/injection, schedule: Q01DX009 (ip), vehicle: Klucel (hydroxypropylcellulose) (HPC)
  T/C: 102 % of control
dose: 1.0 mg/kg/injection, schedule: Q01DX009 (ip), vehicle: Klucel (hydroxypropylcellulose) (HPC)
  T/C: 107 % of control
dose: 1.67 mg/kg/injection, schedule: Q01DX009 (ip), vehicle: Klucel (hydroxypropylcellulose) (HPC)
  T/C: 103 % of control
dose: 2.0 mg/kg/injection, schedule: Q01DX009 (ip), vehicle: Klucel (hydroxypropylcellulose) (HPC)
  T/C: 123 % of control
dose: 2.78 mg/kg/injection, schedule: Q01DX009 (ip), vehicle: Klucel (hydroxypropylcellulose) (HPC)
  T/C: 114 % of control
dose: 4.0 mg/kg/injection, schedule: Q01DX009 (ip), vehicle: Klucel (hydroxypropylcellulose) (HPC)
  T/C: 114 % of control

## COc1cccc(C2NC(=O)c3c(n[nH]c3N)S2)c1O (configuration not stated)
[1]
  T/C: 101 % of control
[2]
  T/C: 106 % of control
[3]
  T/C: 104 % of control
[4]
  T/C: 107 % of control
[5]
  T/C: 95 % of control

## CCOC(=O)c1c(C)c(C(=O)OCC)n(CC)c1C=O
[3]
  T/C: 86 % of control
[4]
  T/C: 89 % of control
[5]
  T/C: 93 % of control

## CC(Cc1ccc(O)cc1)NCC(O)c1ccc(O)c(O)c1 (configuration not stated)
[1]
  T/C: 97 % of control
[2]
  T/C: 92 % of control
[3]
  T/C: 100 % of control
[4]
  T/C: 101 % of control
[5]
  T/C: 101 % of control
[6]
  T/C: 111 % of control

## CC1C(=O)c2cc3c(cc2CCN(C)Cc2c1ccc1c2OCO1)OCO3 (configuration not stated)
dose: 5.0 mg/kg/injection, schedule: Q01DX009 (ip), vehicle: saline with Tween-80
  T/C: 100 % of control
dose: 10.0 mg/kg/injection, schedule: Q01DX009 (ip), vehicle: saline with Tween-80
  T/C: 104 % of control
dose: 20.0 mg/kg/injection, schedule: Q01DX009 (ip), vehicle: saline with Tween-80
  T/C: 103 % of control

## COc1cccc2c1C(=O)c1c(O)c3c(c(O)c1C2=O)C[C@@](O)(C(C)=O)C[C@@H]3OC1CC(N)C(O)C(C)O1 (some centres not stated)
dose: 0.12 mg/kg/injection, schedule: Q01DX009 (ip), vehicle: water
  T/C: 151 % of control
dose: 0.25 mg/kg/injection, schedule: Q01DX009 (ip), vehicle: water
  T/C: 171 % of control
dose: 0.5 mg/kg/injection, schedule: Q01DX009 (ip), vehicle: water
  T/C: 174 % of control and 186 % of control
dose: 1.0 mg/kg/injection, schedule: Q01DX009 (ip), vehicle: water
  T/C: 154 % of control and 285 % of control
dose: 1.5 mg/kg/injection, schedule: Q01DX001 (ip), vehicle: water
  T/C: 187 % of control
dose: 2.0 mg/kg/injection, schedule: Q01DX009 (ip), vehicle: water
  T/C: 242 % of control and 96 % of control
dose: 3.0 mg/kg/injection, schedule: Q01DX001 (ip), vehicle: water
  T/C: 218 % of control
dose: 6.0 mg/kg/injection, schedule: Q01DX001 (ip), vehicle: water
  T/C: 122 % of control

## Cc1cc2c(cc1C)C(=O)c1c(O)c3c(c(O)c1C2=O)C[C@@](O)(C(=O)CO)C[C@@H]3OC1CC(N)C(O)C(C)O1 (some centres not stated)
dose: 2.5 mg/kg/injection, schedule: Q01DX001 (ip), vehicle: water
  T/C: 193 % of control
dose: 5.0 mg/kg/injection, schedule: Q01DX001 (ip), vehicle: water
  T/C: 162 % of control and 193 % of control
dose: 10.0 mg/kg/injection, schedule: Q01DX001 (ip), vehicle: water
  T/C: 213 % of control and 236 % of control
dose: 20.0 mg/kg/injection, schedule: Q01DX001 (ip), vehicle: water
  T/C: 155 % of control and 240 % of control

## CCOC(=O)C(Cc1ccc(O)cc1)NC(=O)c1ccccc1 (configuration not stated)
dose: 40.0 mg/kg/injection, schedule: Q01DX009 (ip), vehicle: saline with Tween-80
  T/C: 116 % of control
dose: 80.0 mg/kg/injection, schedule: Q01DX009 (ip), vehicle: saline with Tween-80
  T/C: 96 % of control
dose: 160.0 mg/kg/injection, schedule: Q01DX009 (ip), vehicle: saline with Tween-80
  T/C: 112 % of control
dose: 320.0 mg/kg/injection, schedule: Q01DX009 (ip), vehicle: saline with Tween-80
  T/C: 96 % of control
dose: 640.0 mg/kg/injection, schedule: Q01DX009 (ip), vehicle: saline with Tween-80
  T/C: 101 % of control

## O=NN(CCF)C(=O)NC1C(O)CCCC1O (configuration not stated)
dose: 7.5 mg/kg/injection, schedule: Q01DX001 (ip), vehicle: saline
  T/C: 198 % of control
dose: 15.0 mg/kg/injection, schedule: Q01DX001 (ip), vehicle: saline
  T/C: 222 % of control
dose: 30.0 mg/kg/injection, schedule: Q01DX001 (ip), vehicle: saline
  T/C: 350 % of control
dose: 60.0 mg/kg/injection, schedule: Q01DX001 (ip), vehicle: saline
  T/C: 350 % of control

## CC1=CCC[C@@H]2C1(C)CCC(C)[C@@]2(C)CC1=CC(=O)C=CC1=O (some centres not stated)
dose: 0.75 mg/kg/injection, schedule: Q01DX009 (ip), vehicle: Klucel (hydroxypropylcellulose) (HPC)
  T/C: 93 % of control
dose: 1.25 mg/kg/injection, schedule: Q01DX009 (ip), vehicle: Klucel (hydroxypropylcellulose) (HPC)
  T/C: 95 % of control

## S=C(NCNC(=S)c1ccncc1)c1ccncc1
[3]
  T/C: 102 % of control
[4]
  T/C: 91 % of control
[5]
  T/C: 100 % of control
[6]
  T/C: 104 % of control

## CC(=O)NC(Cc1ccc(F)cc1)C(=O)O (configuration not stated)
[2]
  T/C: 123 % of control
[3]
  T/C: 121 % of control
[4]
  T/C: 121 % of control
[5]
  T/C: 110 % of control
[6]
  T/C: 111 % of control
dose: 800.0 mg/kg/injection, schedule: Q01DX009 (ip), vehicle: saline with Tween-80
  T/C: 121 % of control

## CC1=C(C(N)=O)C(c2ccccc2)NC(=S)N1 (configuration not stated)
[7]
  T/C: 106 % of control
dose: 50.0 mg/kg/injection, schedule: Q01DX009 (ip), vehicle: Klucel (hydroxypropylcellulose) (HPC)
  T/C: 105 % of control
dose: 100.0 mg/kg/injection, schedule: Q01DX009 (ip), vehicle: Klucel (hydroxypropylcellulose) (HPC)
  T/C: 100 % of control
dose: 200.0 mg/kg/injection, schedule: Q01DX009 (ip), vehicle: Klucel (hydroxypropylcellulose) (HPC)
  T/C: 117 % of control

## CC1(C)N=C(N)N=C(N)N1c1cccc(CCCCc2cccc(N)c2)c1
dose: 6.25 mg/kg/injection, schedule: Q01DX009 (ip), vehicle: Klucel (hydroxypropylcellulose) (HPC)
  T/C: 103 % of control
dose: 12.5 mg/kg/injection, schedule: Q01DX009 (ip), vehicle: Klucel (hydroxypropylcellulose) (HPC)
  T/C: 108 % of control
[7]
  T/C: 114 % of control

## O=C1N(CC2CO2)CCN1CC1CO1 (configuration not stated)
[8]
  T/C: 117 % of control and 97 % of control
dose: 12.5 mg/kg/injection, schedule: Q01DX009 (ip), vehicle: suspension in saline
  T/C: 114 % of control
[9]
  T/C: 118 % of control and 107 % of control
dose: 25.0 mg/kg/injection, schedule: Q01DX009 (ip), vehicle: suspension in saline
  T/C: 124 % of control
[10]
  T/C: 115 % of control
dose: 50.0 mg/kg/injection, schedule: Q01DX009 (ip), vehicle: suspension in saline
  T/C: 165 % of control
dose: 100.0 mg/kg/injection, schedule: Q01DX009 (ip), vehicle: suspension in saline
  T/C: 90 % of control
[11]
  T/C: 122 % of control

## COc1cccc2c1C(=O)c1c(O)c3c(c(O)c1C2=O)CC(O)(C(=O)CO)CC3OC1CC(N)C(O)C(C)O1 (configuration not stated)
dose: 4.1 mg/kg/injection, schedule: Q01DX001 (ip), vehicle: other
  T/C: 108 % of control
dose: 4.5 mg/kg/injection, schedule: Q01DX009 (ip), vehicle: water
  T/C: 209 % of control
dose: 6.9 mg/kg/injection, schedule: Q01DX001 (ip), vehicle: other
  T/C: 114 % of control
dose: 9.0 mg/kg/injection, schedule: Q01DX009 (ip), vehicle: water
  T/C: 219 % of control
dose: 11.5 mg/kg/injection, schedule: Q01DX001 (ip), vehicle: other
  T/C: 118 % of control
dose: 18.0 mg/kg/injection, schedule: Q01DX009 (ip), vehicle: water
  T/C: 234 % of control
dose: 19.2 mg/kg/injection, schedule: Q01DX001 (ip), vehicle: other
  T/C: 123 % of control
dose: 36.0 mg/kg/injection, schedule: Q01DX009 (ip), vehicle: water
  T/C: 156 % of control

## Cc1c(CNc2ccc(C(=O)NC(CC(=O)O)C(=O)O)cc2)ccc2nc(N)nc(N)c12 (configuration not stated)
dose: 0.18 mg/kg/injection, schedule: Q01DX009 (ip), vehicle: saline with Tween-80
  T/C: 90 % of control

## NCCCNCCSP(=O)(O)O
[1]
  T/C: 108 % of control
[8]
  T/C: 104 % of control and 106 % of control
[2]
  T/C: 97 % of control
[9]
  T/C: 115 % of control and 97 % of control
[3]
  T/C: 105 % of control
[10]
  T/C: 109 % of control and 111 % of control
[4]
  T/C: 108 % of control
[12]
  T/C: 109 % of control and 115 % of control
[5]
  T/C: 104 % of control
[11]
  T/C: 121 % of control and 124 % of control

## Cc1ccccc1CN1C2=NCCN2C(=O)C2=C1CCN(S(=O)(=O)c1ccc(Cl)c(S(N)(=O)=O)c1)C2
[8]
  T/C: 101 % of control
[9]
  T/C: 101 % of control
[10]
  T/C: 95 % of control
[12]
  T/C: 90 % of control
[11]
  T/C: 92 % of control
dose: 400.0 mg/kg/injection, schedule: Q01DX009 (ip), vehicle: saline
  T/C: 90 % of control
